In patent publication US12460153B2, “Method for transforming an essential oil” (PRANAROM INTERNATIONAL S.A., priority 2019, dated 2025):

Columns and labels:
S. aureus LMG 16217 = test: Individual activity: MIC of antibiotic alone, microdilution; type: cell-based, Staphylococcus aureus; conditions: S. aureus LMG 16217 (MRSA++)
Method: […] The individual activity may, for example, be evaluated simply by measuring the MIC (minimum inhibitory concentration), which is the lowest concentration sufficient to inhibit, in vitro, the growth of a bacterial strain, after treating different bacterial strains by different EOs transformed or not according to the method of the invention.
To do this, the stock solutions of EO (EO-C and EO-T) were first diluted in DMSO at the rate of 10 μl EO in 300 μl DMSO, They were agitated and stored at ambient temperature, away from the light, in glass tubes autoclaved with threaded cap. The individual activity of the EOs was measured by the microdilution method in a 96 well tray so as to obtain the MIC, value at which a solution inhibits bacterial growth. The bacterial strains treated were S. aureus LMG 15975 (methicillin-resistant Staphylococcus aureus, hereinafter referred to as MRSA÷), E. coli LMG 8223, E. coli LMG 15862, P. aeruginosa LMG 6395, S. aureus LMG 8064, S. aureus LMG 16217 (methicillin-resistant Staphylococcus aureus, hereinafter referred to as MRSA++), E. faecalis LMG 8222, K. pneumoniae LMG 20218 and E. aerogenes LMG 2094. Inocula of the bacterial strains were prepared by placing colonies of 18-24 hours of strains suspended in a sterile physiological solution (NaCl 0.85%). These inocula were then adjusted and diluted so as to obtain a final concentration of 5×10^5 CFU/ml. Concerning the test solutions, 300 μl of stock solutions of EO (diluted in DMSO) were added to 4.7 ml culture medium (for example to Mueller Hinton Broth), so as to obtain a solution of EO of 2 mg/ml which was then diluted in series by half in multi-well trays. The final percentage of DMSO in the wells is less than 5%. After inoculation, the multi-well trays were incubated for 18-24 hours at 37° C. and the presence of bacteria was viewed by adding methyl tetrazolium (MU).

[1] = test system: Staphylococcus aureus LMG 15975; test: Individual activity: MIC by microdilution in 96-well tray; type: cell-based; conditions: S. aureus LMG 15975 (MRSA+); substance alone
Source text: (§1) Within the framework of this invention, the individual activity makes reference to the antimicrobial activity exerted by the EO itself. The individual activity may, for example, be evaluated simply by measuring the MIC (minimum inhibitory concentration), which is the lowest concentration sufficient to inhibit, in vitro, the growth of a bacterial strain, after treating different bacterial strains by different EOs transformed or not according to the method of the invention.
(§2) To do this, the stock solutions of EO (EO-C and EO-T) were first diluted in DMSO at the rate of 10 μl EO in 300 μl DMSO, They were agitated and stored at ambient temperature, away from the light, in glass tubes autoclaved with threaded cap. The individual activity of the EOs was measured by the microdilution method in a 96 well tray so as to obtain the MIC, value at which a solution inhibits bacterial growth. The bacterial strains treated were S. aureus LMG 15975 (methicillin-resistant Staphylococcus aureus, hereinafter referred to as MRSA÷), E. coli LMG 8223, E. coli LMG 15862, P. aeruginosa LMG 6395, S. aureus LMG 8064, S. aureus LMG 16217 (methicillin-resistant Staphylococcus aureus, hereinafter referred to as MRSA++), E. faecalis LMG 8222, K. pneumoniae LMG 20218 and E. aerogenes LMG 2094. […]

S. aureus LMG 8064 = test: Individual activity: MIC by microdilution; type: cell-based, Staphylococcus aureus; conditions: MSSA LMG 8064 strain; PV alone
Source text: as §1, §2

Structure (SMILES)	MIC of the antibiotic on this strain (S. aureus LMG 16217)	Individual activity MIC: PV/EO [1]	MIC of PV (S. aureus LMG 8064)
CC1(C)S[C@@H]2[C@H](NC(=O)COc3ccccc3)C(=O)N2[C@H]1C(=O)O [PV, penicillin V]	64 µg/mL	4 µg/mL	0.015 µg/mL
CC1(C)S[C@@H]2[C@H](NC(=O)[C@H](N)c3ccc(O)cc3)C(=O)N2[C@H]1C(=O)O [amoxicillin]	64 µg/mL	–	–
CC1(C)S[C@@H]2[C@H](NC(=O)Cc3ccccc3)C(=O)N2[C@H]1C(=O)O [penicillin G]	64 µg/mL	–	–
